Assay results: US10870660B2, “Nitrogen-containing condensed ring compounds having dopamine D3 antagonistic effect” (Shionogi & Co., Ltd., priority 2016, dated 2020)

What was measured:
[1] = target: human recombinant dopamine D2 receptor (Homo sapiens (Human), UniProt P14416); test: Test of binding inhibition for the human dopamine D2 receptor ([3H]-Metylspiperone SPA binding); details: [3H]-Metylspiperone 1.2 nM, Jump-In HEK cell membranes, read-out: hD2_Ki
Experimental: Cell membranes: Jump-In HEK cell membranes expressing human recombinant dopamine D2 receptor (2 μg/well)
Buffer solution: 50 mM Tris-HCl (35409-45, Nacalai Tesque) (pH 7.4) containing 120 mM NaCl (31320-05, Nacalai Tesque), 1 mM MgCl2.6H2O (20909-55, Nacalai Tesque), 5 mM KCl (28514-75, Nacalai Tesque) and 2 mM CaCl2 (067-31, Nacalai Chemical, Ltd)
Radioligand: (final concentration) 1.2 nM [^3H]-Metylspiperone ([^3H—N-methyl-]-Metylspiperone, NET-856, 83.8 Ci/mmol, PerkinElmer)
(§1) Non-specific ligand: (final concentration) 10 μM Butaclamol [(+)-Butaclamol Hydrochioride, D033, Sigma]
(§2) SPA beads: SPA beads [WGA PVT SPA Scintillatiion Beads, RPNQ0001 (500 mg), RPNQ0060 (2 g), PerkinElmer] (0.2 mg/well)
(§3) Incubation time and temperature: 120 min at 25° C.
(§4) Butaclamol or the compounds of the present invention were weighed and DMSO was added to make a 10 mM solution. This solution was diluted to each concentration.
[^3H]-Metylspiperone was weighed and the buffer solution was added to make a 3.6 nM solution.
(§5) SPA beads were weighed and stirred in water to make a 50 mg/mL solution. Using this solution, a mixed solution with the cell membranes was prepared.
225 nL of the solutions of the non-specific ligand or the compounds of the present invention at each concentration (in case of vehicle, final concentration 0.3% DMSO) were added in each well of a 384-well white/clear bottom microplate (3706, Corning). Jump-In HEK Cell membranes (final reaction amount: 2 μg protein/well), SPA beads (final reaction amount: 0.2 mg/well) and the buffer were mixed and the mixed solution was left still for more than or equal to 1 h at 4° C. Then, 50 μL of the mixture was added to each well of the plate. In addition, 25 μL of 3.6 nM [^3H]-Metylspiperone (final concentration: 1.2 nM) was added to each well. The plate was sealed by putting TopSeal-A 96/384 well (6050185, PerkinElmer) on the top of the plate, mixed using stirring deaerator (Welltornado, FK-62, Sakaki) and incubated for 120 min at 25° C. After incubation, the radioactivity of [^3H]-Metylspiperone which was binded to D2 receptor was determined by liquid scintillation counter (1450 Microbeta, PerkinElmer) in each well. Non-specific binding was calculated based on the radioactivity of [^3H]-Metylspiperone in the presence of 10 μM non-labeled Butaclamol. The total binding was calculated using the radioactivity of [^3H]-Metylspiperone in the absence of the compounds of the present invention (Vehicle). The Ki values were calculated from dose-response curves.
(§6) Binding activities of the compounds of the present invention were calculated from the following Binding Inhibition Rate (%): Inhibition Rate (%)=[1−(c−a)(b−a)]×100(%) • a: Average cpm of non-specific binding • b: Average cpm of total binding • c: Cpm in the presence of each test compound

[2] = target: human recombinant dopamine D3 receptor (Homo sapiens (Human), UniProt P35462); test: Test of binding inhibition for the human dopamine D3 receptor ([3H]-Metylspiperone SPA binding); details: [3H]-Metylspiperone 2 nM, Jump-In HEK cell membranes, read-out: hD3_Ki
Chain of human recombinant dopamine D3 receptor (P35462 whole entry): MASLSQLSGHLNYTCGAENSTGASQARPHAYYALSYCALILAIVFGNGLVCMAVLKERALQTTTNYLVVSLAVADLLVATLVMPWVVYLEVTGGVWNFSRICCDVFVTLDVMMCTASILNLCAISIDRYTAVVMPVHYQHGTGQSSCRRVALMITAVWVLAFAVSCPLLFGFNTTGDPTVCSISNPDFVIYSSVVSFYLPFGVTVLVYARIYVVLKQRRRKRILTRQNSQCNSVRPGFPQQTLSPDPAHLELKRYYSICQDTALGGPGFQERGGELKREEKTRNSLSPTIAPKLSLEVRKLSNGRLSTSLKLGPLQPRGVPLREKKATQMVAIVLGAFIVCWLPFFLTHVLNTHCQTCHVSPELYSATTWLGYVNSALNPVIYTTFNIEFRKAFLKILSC
Experimental: Cell membranes: Jump-In HEK cell membranes expressing human recombinant dopamine D3 receptor (4 μg/well)
as §1, §2, §3, §4
[^3H]-Metylspiperone was weighed and the buffer solution was added to make a 6 nM solution.
as §5
Jump-In HEK Cell membranes (final reaction amount: 4 μg/well), SPA beads (final reaction amount: 0.2 mg/well) and Tris-HCl buffer were mixed and the mixed solution was left still for more than 60 min at 4° C. Then, 50 μL of the mixture was added to each well of the plate. In addition, 25 μL of 6 nM [^3H]-Metylspiperone (final concentration: 2 nM) was added to each well. […] Non-specific binding was calculated based on the radioactivity of [^3H]-Metylspiperone in the presence of 10 μM non-labeled Butaclamol. The total binding was calculated based on the radioactivity of [^3H]-Metylspiperone in the absence of the compounds of the present invention (Vehicle). The Ki values were calculated from dose-response curves.
as §6

Chain of human recombinant dopamine D2 receptor (P14416 whole entry): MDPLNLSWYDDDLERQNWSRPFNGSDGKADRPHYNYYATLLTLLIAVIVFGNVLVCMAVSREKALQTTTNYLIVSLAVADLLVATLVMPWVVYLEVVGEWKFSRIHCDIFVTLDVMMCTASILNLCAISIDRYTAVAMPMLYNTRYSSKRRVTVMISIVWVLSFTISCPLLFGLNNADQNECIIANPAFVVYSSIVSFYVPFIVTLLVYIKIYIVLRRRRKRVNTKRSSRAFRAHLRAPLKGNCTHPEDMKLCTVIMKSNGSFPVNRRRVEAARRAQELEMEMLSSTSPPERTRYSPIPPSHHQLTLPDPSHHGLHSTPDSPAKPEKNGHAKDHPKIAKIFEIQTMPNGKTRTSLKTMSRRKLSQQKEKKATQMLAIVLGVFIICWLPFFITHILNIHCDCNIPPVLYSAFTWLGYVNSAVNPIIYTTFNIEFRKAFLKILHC

| Ki [1] [nM] | Ki [2] [nM] | SMILES |
| --- | --- | --- |
| 820 | 0.44 | Cc1ncc(CC(=O)N[C@H]2CC[C@](F)(CCN3CCc4nc(OCC(C)(F)F)sc4CC3)CC2)s1 [II-070] |
| > 1700 | 0.08 | O=C(N[C@H]1CC[C@H](CCN2CCc3sc(N4CC5CC5C4)nc3C2)CC1)c1cccc2ncccc12 (stereo partly drawn) [Compound I-073] |
| > 1800 | 0.25 | Cc1nc(CC(=O)N[C@H]2CC[C@](F)(CCN3CCc4nc(OCC(F)(F)F)sc4CC3)CC2)no1 [III-264] |
| 330 | – | Cn1cc2c(C(=O)N[C@H]3CC[C@H](CCN4CCc5ccc(OCC(C)(F)F)nc5CC4)CC3)cccc2n1 [III-027] |
| 210 | 0.2 | Cn1cc2c(C(=O)N[C@H]3CC[C@H](CCN4CCc5sc(OCC(C)(F)F)nc5C4)CC3)ccc(F)c2n1 [III-666] |
| > 1800 | 0.67 | Cc1cc(CC(=O)N[C@H]2CC[C@](F)(CCN3CCc4nc(OCC(F)(F)F)sc4CC3)CC2)no1 [III-255] |
| 79 | 0.44 | CC(F)(F)COc1nc2c(s1)CCN(CC[C@H]1CC[C@H](NS(=O)(=O)c3cccc(F)c3)CC1)C2 [III-576] |
| > 1800 | 0.66 | Cn1cc2c(C(=O)N[C@H]3CC[C@H](CCN4CCc5ccc(C6CC6)nc5CC4)CC3)cccc2n1 [III-074] |
| 150 | 0.13 | CC(F)(F)COc1nc2c(s1)CCN(CC[C@H]1CC[C@H](NC(=O)c3cccc4ncccc34)CC1)C2 [Compound I-071] |
| > 1800 | 0.83 | Cn1cc2c(C(=O)N[C@H]3CC[C@H](CCN4CCc5sc(COC(F)(F)F)nc5C4)CC3)cccc2n1 [III-623] |
| 230 | 0.45 | CC(=O)N[C@H]1CC[C@H](CCN2CCc3nc(OCC(C)(F)F)sc3CC2)CC1 [II-014] |
| 500 | 0.11 | O=C1Cc2cccc(C(=O)N[C@H]3CC[C@H](CCN4CCc5nc(OCC(F)F)sc5CC4)CC3)c2N1 [III-280] |
| > 1800 | 1.1 | Cc1ncc(CC(=O)N[C@H]2CC[C@H](CCN3CCc4ccc(OC5CCOC5)nc4CC3)CC2)s1 (stereo partly drawn) [III-052] |
| 500 | 1.4 | Cn1c(-c2ccccc2)nc2c1CCN(CC[C@H]1CC[C@H](NC(=O)c3cccc4ncccc34)CC1)C2 [Compound I-070] |
| 860 | 0.91 | O=C(N[C@H]1C[C@@H]2[C@@H](CCN3CCc4sc(OCC(F)F)nc4C3)[C@@H]2C1)c1cccc2ncccc12 [Compound I-124] |
| 220 | 0.23 | CN1Cc2c(C(=O)N[C@H]3CC[C@H](CCN4CCc5sc(CCC(F)(F)F)nc5C4)CC3)cccc2C1=O [III-697] |
| – | 0.2 | COc1cc(CC(=O)N[C@H]2CC[C@H](CCN3CCc4nc(OCC(F)(F)F)sc4CC3)OC2)on1 [III-199] |
| > 1800 | 1.2 | Cn1cc(CC(=O)N[C@H]2CC[C@H](CCN3CCc4sc(COC(F)(F)F)nc4C3)CC2)cn1 [III-622] |
| > 1700 | 0.47 | Cc1cc(CC(=O)N[C@H]2CC[C@H](CCN3CCc4nc(OCC(F)(F)F)sc4CC3)OC2)on1 [III-171] |
| 850 | 0.44 | Cn1cc(CC(=O)N[C@H]2CC[C@H](CCN3CCc4sc(OC5CCC(F)(F)C5)nc4C3)CC2)cn1 (stereo partly drawn) [III-484] |
| 350 | 0.32 | Cn1cc(OCC(=O)N[C@H]2CC[C@H](CCN3CCc4sc(OCC(C)(F)F)nc4C3)CC2)cn1 [III-573] |
| 730 | – | Cc1ncc(CC(=O)N[C@H]2CC[C@H](CCN3CCc4nc(OCC(F)(F)F)sc4CC3)CC2)s1 [II-053] |
| 120 | 0.086 | CCN1Cc2c(C(=O)N[C@H]3CC[C@H](CCN4CCc5ccc(OCC(F)(F)F)nc5CC4)OC3)cccc2C1=O [III-236] |

| Ki [1] [nM] | Ki [2] [nM] | SMILES |
| --- | --- | --- |
| 610 | 0.49 | Cc1ncc(CC(=O)N[C@H]2CC[C@H](CCN3CCc4sc(OCC(F)(F)F)nc4C(C)C3)CC2)s1 (stereo partly drawn) [III-110] |
| > 1700 | 0.91 | CC(CF)Oc1nc2c(s1)CCN(CC[C@H]1CC[C@H](NC(=O)c3cccc4nn(C)cc34)CC1)CC2 (stereo partly drawn) [III-159] |
| 330 | 0.077 | CN1Cc2c(C(=O)N[C@H]3CC[C@H](CCN4CCc5sc(OCC(F)(F)F)nc5C4)CC3)cccc2C1=O [III-610] |
| 510 | – | Cc1ncc(CC(=O)N[C@H]2CC[C@H](CCN3CCc4nc(N(C)CC(F)(F)F)sc4CC3)CC2)s1 [II-084] |
| > 1800 | 0.075 | Cc1cc(OCC(=O)N[C@H]2CC[C@H](CCN3CCc4ccc(OCC(F)(F)F)nc4CC3)CC2)no1 [II-078] |
| 1100 | 1 | Cn1c(C#N)cc2c1CCN(CC[C@H]1CC[C@H](NC(=O)c3cccc4ncccc34)CC1)C2 [Compound I-052] |
| 560 | 0.22 | Cc1ncc(CC(=O)N[C@H]2CC[C@](F)(CCN3CCc4nc(OCC(F)(F)F)sc4CC3)CC2)o1 [III-262] |
| 610 | 0.44 | Cc1ncccc1C(=O)N[C@H]1CC[C@H](CCN2CCc3sc(OCC(F)(F)F)nc3C2)CC1 [III-603] |
| 240 | 0.31 | CC(C)C(=O)N[C@H]1CC[C@H](CCN2CCc3nc(OCC(F)(F)F)sc3CC2)CC1 [III-031] |
| 290 | 0.36 | Cc1nnc(CC(=O)N[C@H]2CC[C@](F)(CCN3CCc4nc(OCC(F)(F)F)sc4CC3)CC2)s1 [III-269] |
| > 1700 | 0.014 | Cn1cc2c(C(=O)N[C@H]3CC[C@H](CCN4CCc5ccc(OCC(F)F)nc5CC4)CC3)cccc2n1 [II-057] |
| 590 | 0.43 | Cc1ncccc1C(=O)N[C@H]1CC[C@](F)(CCN2CCc3nc(OCC(F)(F)F)sc3CC2)CC1 [III-252] |
| 410 | 0.45 | Cc1nnc(CC(=O)N[C@H]2CC[C@](F)(CCN3CCc4ccc(OCC(F)(F)F)nc4CC3)CC2)o1 [III-082] |
| 44 | 0.057 | Cn1cc(/C=C/C(=O)N[C@H]2CC[C@H](CCN3CCc4nc(OCC(F)(F)F)sc4CC3)CC2)cn1 [III-138] |
| 800 | 0.64 | Cn1cc(CC(=O)N[C@H]2CC[C@H](CCN3CCc4sc(OCC(C)(F)F)nc4C3)CC2)c(F)n1 [III-547] |
| 260 | 0.059 | Cn1cc2c(C(=O)N[C@H]3CC[C@H](CCN4CCc5ccc(OCC(F)(F)F)nc5CC4)OC3)cccc2n1 [II-087] |
| > 1700 | 0.34 | Cn1cc2c(C(=O)N[C@H]3CC[C@H](CCN4CCc5nc(O[C@H]6C[C@H](F)C6)sc5CC4)CC3)cccc2n1 [III-158] |
| > 1800 | 25 | O=C(N[C@H]1CC[C@H](CCN2CCc3nc(OCC(F)F)ncc3C2)CC1)c1cccc2ncccc12 [Compound I-136] |
| – | 0.56 | Cc1ncccc1C(=O)N[C@H]1CC[C@H](CCN2CCc3nc(OCC(F)(F)F)sc3CC2)OC1 [III-182] |
| – | 0.14 | Cc1nc(CC(=O)N[C@H]2CC[C@H](CCN3CCc4ccc(OCC(C)(F)F)nc4CC3)CC2)no1 [III-019] |
| > 1700 | – | COc1cc(CC(=O)N[C@H]2CC[C@H](CCN3CCc4sc(N5CC(F)(F)C5)nc4C3)CC2)on1 [III-578] |
| – | 0.2 | Cn1cc(CC(=O)N[C@H]2CC[C@H](CCN3CCc4nc(OCC(F)(F)F)sc4CC3)CC2)cn1 [III-037] |
| 810 | – | Cc1cc(OCC(=O)N[C@H]2CC[C@H](CCN3CCc4sc(N5CC(F)(F)C5)nc4C3)CC2)no1 [III-581] |

| SMILES | Ki [1] [nM] | Ki [2] [nM] |
| --- | --- | --- |
| Cc1cc(CC(=O)N[C@H]2CC[C@H](CCN3CCc4nc(OCC(F)F)sc4CC3)CC2)no1 [III-282] | – | 0.82 |
